Reference: US20230053540A1, “TREATMENT OF LIVER INJURY” (Massachusetts Institute of Technology, priority 2019, published 2023)

Test system: hepatocytes
Assay: Seq-Well scRNA-Seq of hepatocytes after APAP overdose (signature scores, DEG vs untreated)
Assay type: in vivo, mouse
Conditions: APAP vs UT, composite DEG

For `CC(=O)Nc1ccc(O)cc1` [APAP, acetaminophen], the “Fam134b logFC” value was 0.8936, the “Fam214a logFC” value was −0.2658 and the “Fcgrt logFC” value was −0.2693. The “Fdps logFC” value was −0.2663, the “Fitm1 logFC” value was −0.3242 and the “Fkbp4 logFC” value was −0.3534. The “Fmo5 logFC” value was 0.2862, the “Fn1 logFC” value was 0.6996 and the “Fpgs logFC” value was −0.3494. The “Ftl1 logFC” value was 1, the “Furin logFC” value was 0.4056 and the “Fus logFC” value was 0.3393. For the same compound, the “Fxyd5 logFC” value was 0.2743, the “G0s2 logFC” value was 0.3465 and the “G6pc logFC” value was −0.9601. The “Gabarap logFC” value was −0.4425, the “Gabarapl1 logFC” value was 0.2607 and the “Gadd45g logFC” value was −0.614. For the same compound, the “Gadd45gip1 logFC” value was −0.3041, the “Gc logFC” value was 0.2598 and the “Gcdh logFC” value was −0.3003. For the same compound, the “Gch1 logFC” value was −0.2825, the “Gcnt2 logFC” value was 0.5375 and the “Gfra1 logFC” value was 0.3864. For the same compound, the “Ggnbp2 logFC” value was 0.2726, the “Ghr logFC” value was −0.3648 and the “Gjb1 logFC” value was −0.3166. For the same compound, the “Glo1 logFC” value was −0.4066, the “Gltscr2 logFC” value was 0.2553 and the “Glud1 logFC” value was 0.451. The “Glyctk logFC” value was −0.2977, the “Gm2a logFC” value was 0.3831 and the “Gm2788 logFC” value was −0.2831. For the same compound, the “Gm4951 logFC” value was −0.3221, the “Gm6484 logFC” value was 0.3043 and the “Gm10800 logFC” value was 0.5626. For the same compound, the “Gm10801 logFC” value was 0.2659, the “Gm23935 logFC” value was 1 and the “Gm24245 logFC” value was 0.5465. The “Gm24270 logFC” value was 0.268, the “Gne logFC” value was −0.4251 and the “Gnmt logFC” value was −0.4604. The “Golga4 logFC” value was 0.3521, the “Gpam logFC” value was 0.2504 and the “Gpld1 logFC” value was 0.3281. The “Grhpr logFC” value was −0.3531, the “Grlf1 logFC” value was 0.295 and the “Grn logFC” value was 0.5408. The “Gsk3b logFC” value was 0.4065, the “Gsta1 logFC” value was 0.4076 and the “Gsta3 logFC” value was −0.8063. For the same compound, the “Gstk1 logFC” value was −0.2828, the “Gstm4 logFC” value was −0.3809 and the “Gstp1 logFC” value was −0.8558. The “Gstt3 logFC” value was 0.3507, the “Gtpbp4 logFC” value was 0.4822 and the “Gyk logFC” value was 0.4024. For the same compound, the “Gys2 logFC” value was 0.2744, the “H6pd logFC” value was 0.3437 and the “Hadh logFC” value was 0.2888. For the same compound, the “Hagh logFC” value was −0.674, the “Hamp logFC” value was −1.021 and the “Hba-a1 logFC” value was 0.735. The “Hba-a2 logFC” value was 0.5535, the “Hbb-bt logFC” value was 1.43 and the “Hdac11 logFC” value was −0.3368. For the same compound, the “Hdlbp logFC” value was 0.5651, the “Herpud1 logFC” value was 0.5136 and the “Hgd logFC” value was −0.7586. For the same compound, the “Hgfac logFC” value was 0.2522, the “Hibch logFC” value was −0.3271 and the “Hint1 logFC” value was −0.6739. The “Hipk3 logFC” value was 0.3394, the “Hist1h1c logFC” value was −0.3009 and the “Hmgcl logFC” value was 0.4738. For the same compound, the “Hmgcr logFC” value was 0.4167, the “Hmgcs1 logFC” value was −0.3491 and the “Hnf4a logFC” value was 0.8791. The “Hnrnpdl logFC” value was 0.398, the “Hp logFC” value was 0.4313 and the “Hsd3b3 logFC” value was −0.7795. For the same compound, the “Hsd3b5 logFC” value was −1.07, the “Hsd3b7 logFC” value was −1.006 and the “Hsd17b4 logFC” value was 0.2532. For the same compound, the “Hsd17b10 logFC” value was −0.3772, the “Hsd17b13 logFC” value was 0.6808 and the “Hsp90ab1 logFC” value was 0.3227. The “Hsp90b1 logFC” value was 0.5342, the “Hspa5 logFC” value was 0.6105 and the “Hspa8 logFC” value was 0.4204. For the same compound, the “Huwe1 logFC” value was 0.3879, the “Hyou1 logFC” value was 0.8465 and the “Id3 logFC” value was −0.3511. For the same compound, the “Ide logFC” value was 0.2517, the “Ifrd1 logFC” value was 0.4904 and the “Igf1 logFC” value was 0.2958. The “Iigp1 logFC” value was 0.7688, the “Il1b logFC” value was 0.7429 and the “Il1r1 logFC” value was 1.245. For the same compound, the “Il4ra logFC” value was 0.2574, the “Il6ra logFC” value was 0.3044 and the “Ildr2 logFC” value was 0.2676. For the same compound, the “Insig2 logFC” value was 0.67, the “Ipo5 logFC” value was 0.2687 and the “Iqgap1 logFC” value was 0.4554. The “Iqgap2 logFC” value was 0.2547, the “Ireb2 logFC” value was 0.2657 and the “Itih3 logFC” value was 0.5462. The “Itih4 logFC” value was 0.5251, the “Jhdm1d logFC” value was 0.3041 and the “Kdelr2 logFC” value was 0.3977. For the same compound, the “Khk logFC” value was −0.4915, the “Kif1b logFC” value was 0.3718 and the “Kif5b logFC” value was 0.5012. For the same compound, the “Kif21a logFC” value was 0.4042, the “Klf3 logFC” value was 0.2674 and the “Klf6 logFC” value was 0.7324. For the same compound, the “Klf9 logFC” value was 0.2934, the “Kng1 logFC” value was 0.2658 and the “Krt8 logFC” value was 1.196. The “Krt18 logFC” value was 1.258, the “Lamp1 logFC” value was 0.2683 and the “Lap3 logFC” value was −0.3644. The “Larp4b logFC” value was 0.3421, the “Lasp1 logFC” value was 0.253 and the “Lcat logFC” value was 0.4361. The “Lcp1 logFC” value was 0.484, the “Lgals9 logFC” value was −0.27 and the “Lifr logFC” value was −0.6262. For the same compound, the “Lipa logFC” value was 0.4183, the “Litaf logFC” value was 0.3944 and the “Lpgat1 logFC” value was 0.5952. For the same compound, the “Lpin2 logFC” value was 0.6867, the “Lrg1 logFC” value was 0.4908 and the “Lrrc58 logFC” value was 1.001. For the same compound, the “Lrrfip2 logFC” value was 0.3731, the “Lsmd1 logFC” value was −0.3131 and the “Lyz2 logFC” value was 0.7322. For the same compound, the “Macf1 logFC” value was 0.4042, the “Magt1 logFC” value was 0.2633 and the “Man2a1 logFC” value was 0.4971. The “Maob logFC” value was 0.3204, the “Map3k5 logFC” value was 0.3347 and the “Mapk6 logFC” value was 0.2568. For the same compound, the “Mat2a logFC” value was 0.4826, the “Mbl2 logFC” value was −0.3465 and the “Mbnl1 logFC” value was 0.4513. For the same compound, the “Mcee logFC” value was −0.3199, the “Mcl1 logFC” value was 0.5709 and the “Mdh1 logFC” value was −0.3077. The “Mdm2 logFC” value was 0.3283, the “Med13 logFC” value was 0.2949 and the “Met logFC” value was 0.2883. For the same compound, the “Metap2 logFC” value was 0.3686, the “Mettl7a1 logFC” value was −0.3221 and the “Mettl7b logFC” value was −0.4527. The “Mettl20 logFC” value was −0.3314, the “Mgll logFC” value was 0.3339 and the “Mgst1 logFC” value was −1.06. The “Mia3 logFC” value was 0.3646, the “Mien1 logFC” value was −0.3704 and the “Mki67ip logFC” value was 0.3184. For the same compound, the “Mlycd logFC” value was 0.313, the “Mmp8 logFC” value was 0.359 and the “Mocs2 logFC” value was −0.3467. For the same compound, the “Mpeg1 logFC” value was 0.4935, the “Mrap logFC” value was 0.8841 and the “Mrc1 logFC” value was 0.3404. The “Mrp63 logFC” value was −0.4422, the “Mrpl12 logFC” value was −0.3082 and the “Mrpl33 logFC” value was −0.2654. For the same compound, the “Mrps18c logFC” value was −0.3663, the “Mrps24 logFC” value was −0.3904 and the “Mtdh logFC” value was 0.3047. For the same compound, the “Mthfd2 logFC” value was 0.2624, the “Mtss1 logFC” value was 0.2876 and the “Mttp logFC” value was 0.3115. The “Mtus1 logFC” value was 0.3621, the “Mup1 logFC” value was 1 and the “Mup4 logFC” value was −1.087. For the same compound, the “Mup8 logFC” value was −0.7958, the “Mup13 logFC” value was −0.7757 and the “Mup14 logFC” value was −0.7608. For the same compound, the “Mup20 logFC” value was −0.4762, the “Mxd1 logFC” value was 0.2978 and the “Mybbp1a logFC” value was 0.4312. For the same compound, the “Myh9 logFC” value was 1.16, the “Myl12a logFC” value was 0.3908 and the “Nadk2 logFC” value was 0.2579. For the same compound, the “Naprt1 logFC” value was −0.3381, the “Narf logFC” value was 0.2629 and the “Nars logFC” value was 0.4378. For the same compound, the “Ncl logFC” value was 0.4845, the “Ndufa1 logFC” value was −0.3645 and the “Ndufa2 logFC” value was −0.3965. For the same compound, the “Ndufa3 logFC” value was −0.4116, the “Ndufa4 logFC” value was −0.6831 and the “Ndufb3 logFC” value was −0.3272. For the same compound, the “Ndufb8 logFC” value was −0.3481, the “Ndufb10 logFC” value was −0.3004 and the “Ndufc1 logFC” value was −0.3444. The “Ndufc2 logFC” value was −0.4253.
